What was measured:
Type in all cases: binding
Settings in all cases: ✓ / X, key not given
[1] = test system: 3β2α; test: Epitope mapping, PDGFRβ/α chimera
Method: (§1) 2C5 binds to domain 1 (D1) and domain 2 (D2) of PDGFRβ. Various chimeric constructs of PDGFRβ and PDGFRα were first made by domain swapping, starting from N-terminus to C-terminus with PDGFRβ domain(s) replacing PDGFRα domain(s). The PDGFRβ/α chimera were tested for the ability of 2C5 binding. Shorter versions of PDGFRβ, including D1D2, D2D3 and D1D2D3, were then made to confirm the 2C5 binding domains on PDGFRβ.

[2] = test system: 4β1α; test: Epitope mapping, PDGFRβ/α chimera
Method: as §1

[3] = molecular target: T1, m5β (Mus musculus, UniProt P05622); test: Epitope mapping
T1 sequence (P05622 32-531 limits assumed): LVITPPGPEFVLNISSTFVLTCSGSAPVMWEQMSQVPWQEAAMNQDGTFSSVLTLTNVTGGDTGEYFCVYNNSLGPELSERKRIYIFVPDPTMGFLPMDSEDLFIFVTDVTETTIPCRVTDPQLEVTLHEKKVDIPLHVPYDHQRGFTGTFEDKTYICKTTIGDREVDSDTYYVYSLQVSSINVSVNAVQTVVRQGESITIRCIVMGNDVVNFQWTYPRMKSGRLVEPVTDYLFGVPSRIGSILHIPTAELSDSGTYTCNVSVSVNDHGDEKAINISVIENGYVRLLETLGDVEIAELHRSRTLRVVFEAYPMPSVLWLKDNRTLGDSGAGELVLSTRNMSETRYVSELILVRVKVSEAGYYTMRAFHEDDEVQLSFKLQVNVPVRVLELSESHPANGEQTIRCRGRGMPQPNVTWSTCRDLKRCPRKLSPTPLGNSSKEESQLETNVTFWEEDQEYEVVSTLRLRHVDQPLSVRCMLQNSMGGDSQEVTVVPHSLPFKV
Method: as §1

[4] = molecular target: h5α (Homo sapiens, UniProt P16234); test: Epitope mapping
Method: as §1, with “Various” for “2C5 binds to domain 1 (D1) and domain 2 (D2) of PDGFRβ. Various”

[5] = test system: 2β3α; test: Epitope mapping, PDGFRβ/α chimera
Method: as §1, with “Various” for “2C5 binds to domain 1 (D1) and domain 2 (D2) of PDGFRβ. Various”

[6] = test system: β1-3; test: Epitope mapping, shorter version of PDGFRβ (D1D2D3)
Method: as §1

Chain of h5α (P16234 24-528 limits assumed): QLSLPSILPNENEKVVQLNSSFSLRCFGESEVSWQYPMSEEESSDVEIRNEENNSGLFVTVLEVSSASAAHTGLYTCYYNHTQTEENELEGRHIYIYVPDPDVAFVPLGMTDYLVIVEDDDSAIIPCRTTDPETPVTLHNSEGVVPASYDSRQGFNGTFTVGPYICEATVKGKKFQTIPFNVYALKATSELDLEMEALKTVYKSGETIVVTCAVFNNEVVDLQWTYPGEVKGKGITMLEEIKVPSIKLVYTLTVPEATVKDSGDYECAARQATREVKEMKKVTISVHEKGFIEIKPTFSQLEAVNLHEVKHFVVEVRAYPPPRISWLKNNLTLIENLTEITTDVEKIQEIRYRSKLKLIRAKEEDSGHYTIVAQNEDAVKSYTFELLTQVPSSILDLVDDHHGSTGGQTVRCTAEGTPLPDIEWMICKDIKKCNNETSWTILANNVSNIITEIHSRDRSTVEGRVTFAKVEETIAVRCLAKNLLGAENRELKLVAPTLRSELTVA

- binding to 3β2α [1]: ✓
- binding to 4β1α [2]: ✓
- binding to m5β [3]: ✓
- binding to h5α [4]: ✓
- binding to 2β3α [5]: ✓
- binding to β1-3 [6]: ✓
Substance: PDGF-BB: platelet-derived growth factor dimer, ligand of PDGFRβ and PDGFRα [reference compound]

Source: patent publication US7740850B2, “PDGFRβ-specific antibodies” (ImClone, LLC, priority 2007, dated 2010)
